Reference: paper PMC4739419, “Mutations in the nucleotide binding and hydrolysis domains of Helicobacter pylori MutS2 lead to altered biochemical activities and inactivation of its in vivo function” (BMC Microbiology, 2016)

What was measured:
Assay in all cases: Tryptophan fluorescence-quenching nucleotide binding assay
Conditions in all cases: no divalent metal ions, protein 1 μM, 25 °C; read-out: Kd (dissociation constant)
[1] = biological target: T1, HpMutS2 (Helicobacter pylori, UniProt O25338)
T1 construct: (A) HpMutS2 (1-762): Mol. wt; (kDa): 87.8; His6 (C); made in house; host or cells: E. coli Rosetta (DE3) pLysS
T1 sequence (O25338 whole entry): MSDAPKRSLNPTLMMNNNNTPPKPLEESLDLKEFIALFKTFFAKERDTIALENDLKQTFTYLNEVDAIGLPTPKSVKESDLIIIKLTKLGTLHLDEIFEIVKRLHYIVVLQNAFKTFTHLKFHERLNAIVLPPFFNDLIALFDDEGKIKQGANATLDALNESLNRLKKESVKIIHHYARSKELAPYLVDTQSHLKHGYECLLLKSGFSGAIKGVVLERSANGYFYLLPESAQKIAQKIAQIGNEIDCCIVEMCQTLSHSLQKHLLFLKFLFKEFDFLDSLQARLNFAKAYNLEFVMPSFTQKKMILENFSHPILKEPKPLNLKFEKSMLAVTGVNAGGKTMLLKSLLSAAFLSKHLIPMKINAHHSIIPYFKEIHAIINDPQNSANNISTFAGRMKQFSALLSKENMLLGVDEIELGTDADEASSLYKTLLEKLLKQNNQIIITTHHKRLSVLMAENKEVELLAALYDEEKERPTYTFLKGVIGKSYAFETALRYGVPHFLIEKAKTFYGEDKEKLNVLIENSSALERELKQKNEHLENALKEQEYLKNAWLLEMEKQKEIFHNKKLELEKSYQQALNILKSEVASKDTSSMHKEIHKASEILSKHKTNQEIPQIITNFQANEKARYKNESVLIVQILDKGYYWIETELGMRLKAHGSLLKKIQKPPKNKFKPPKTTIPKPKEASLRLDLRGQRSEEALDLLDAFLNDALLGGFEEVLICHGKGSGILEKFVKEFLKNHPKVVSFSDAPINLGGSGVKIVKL
Method: (§1) Next, the ATP hydrolysing abilities of HpMutS2-G338R and HpMutS2-E413A were tested and compared to that of wild-type HpMutS2. […] Therefore, to determine the nucleotide binding efficiencies of HpMutS2, HpMutS2-G338R, and HpMutS2-E413A, intrinsic fluorescence properties of these proteins were exploited. HpMutS2 has two tryptophan residues at positions 551 and 644. A fluorescence-quenching assay was used to determine the ATP and ADP binding affinities of HpMutS2 and its mutants. Quenching of the Trp fluorescence was recorded upon titration with ATP and ADP in absence of any divalent metal ions. Saturation isotherms generated from the changes in the fluorescence emission spectra of HpMutS2, HpMutS2-G338R, and HpMutS2-E413A were used to calculate the dissociation constants for ATP and ADP (Figs. 2a, b and c respectively).
(§2) Fig. 2 Nucleotide binding affinities of a HpMutS2 b HpMutS2-G338R and c HpMutS2-E413A. Tryptophan fluorescence assays described in the Methods section were used to determine the nucleotide binding affinities of proteins.
(§3) Fluorescence spectroscopy analysis of HpMutS2 was carried out based on the intrinsic fluorescent signal of tryptophan. The proteins were dialyzed in buffer B (50 mM Tris pH 8.0 and 100 mM NaCl) for 4–6 h with at least two changes of the buffer. Fluorescence intensities were measured on a Shimadzu, RF 5000 spectrofluorimeter using a 1-cm stirred quartz cuvette at 25 °C. The emission spectra were recorded over a wavelength of 300–400 nm with an excitation wavelength of 280 nm. To measure the dissociation constants for ATP and ADP, small aliquots of cofactor were added to proteins (1 μM), and spectra were recorded. Each spectra recorded was an average of three scans. The maximum fluorescence intensities observed at around 340 nm were selected for calculating the difference in intrinsic fluorescence of protein alone and in the presence of ligand. Control titrations were conducted and all the fluorescence emission spectra were corrected by subtracting control spectra. The dissociation constants were calculated graphically using a plot of ΔF/ΔFmax versus ligand concentration. ΔF is the magnitude of the difference between the observed fluorescence intensity at a given concentration of ligand and the fluorescence intensity in the absence of ligand and ΔFmax is the difference at saturating concentration of ligand.

[2] = biological target: T2, HpMutS2-E413A (Helicobacter pylori, UniProt O25338, E413A)
T2 construct: (A) HpMutS2-E413A (1-762): Mol. wt; (kDa): 87.7; His6 (C); made in house; host or cells: E. coli Rosetta (DE3) pLysS
T2 sequence (O25338 1-762 E413A): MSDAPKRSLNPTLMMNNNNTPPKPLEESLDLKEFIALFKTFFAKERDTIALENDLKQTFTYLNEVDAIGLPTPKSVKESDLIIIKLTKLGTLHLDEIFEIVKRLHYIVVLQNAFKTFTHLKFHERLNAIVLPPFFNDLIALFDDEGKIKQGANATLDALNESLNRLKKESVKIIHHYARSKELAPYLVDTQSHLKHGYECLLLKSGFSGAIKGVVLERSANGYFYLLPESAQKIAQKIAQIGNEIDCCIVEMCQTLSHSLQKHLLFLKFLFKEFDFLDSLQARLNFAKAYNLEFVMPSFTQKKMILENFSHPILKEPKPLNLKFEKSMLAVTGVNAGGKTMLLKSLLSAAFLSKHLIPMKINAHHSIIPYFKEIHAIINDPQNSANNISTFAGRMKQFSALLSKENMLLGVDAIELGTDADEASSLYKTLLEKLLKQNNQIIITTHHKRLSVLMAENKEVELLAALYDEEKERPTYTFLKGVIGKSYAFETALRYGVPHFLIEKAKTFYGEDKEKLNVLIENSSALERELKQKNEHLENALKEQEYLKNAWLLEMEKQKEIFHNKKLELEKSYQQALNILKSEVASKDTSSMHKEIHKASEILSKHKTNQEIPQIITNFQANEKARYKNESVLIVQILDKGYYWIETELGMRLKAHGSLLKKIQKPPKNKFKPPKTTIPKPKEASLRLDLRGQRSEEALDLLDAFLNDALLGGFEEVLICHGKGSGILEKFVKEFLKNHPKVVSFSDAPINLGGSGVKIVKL
Method: as §1, §2, §3

[3] = biological target: T3, HpMutS2-G338R (Helicobacter pylori, UniProt O25338, G338R)
T3 construct: (A) HpMutS2-G338R (1-762): Mol. wt; (kDa): 87.9; His6 (C); made in house; host or cells: E. coli Rosetta (DE3) pLysS
T3 sequence (O25338 1-762 G338R): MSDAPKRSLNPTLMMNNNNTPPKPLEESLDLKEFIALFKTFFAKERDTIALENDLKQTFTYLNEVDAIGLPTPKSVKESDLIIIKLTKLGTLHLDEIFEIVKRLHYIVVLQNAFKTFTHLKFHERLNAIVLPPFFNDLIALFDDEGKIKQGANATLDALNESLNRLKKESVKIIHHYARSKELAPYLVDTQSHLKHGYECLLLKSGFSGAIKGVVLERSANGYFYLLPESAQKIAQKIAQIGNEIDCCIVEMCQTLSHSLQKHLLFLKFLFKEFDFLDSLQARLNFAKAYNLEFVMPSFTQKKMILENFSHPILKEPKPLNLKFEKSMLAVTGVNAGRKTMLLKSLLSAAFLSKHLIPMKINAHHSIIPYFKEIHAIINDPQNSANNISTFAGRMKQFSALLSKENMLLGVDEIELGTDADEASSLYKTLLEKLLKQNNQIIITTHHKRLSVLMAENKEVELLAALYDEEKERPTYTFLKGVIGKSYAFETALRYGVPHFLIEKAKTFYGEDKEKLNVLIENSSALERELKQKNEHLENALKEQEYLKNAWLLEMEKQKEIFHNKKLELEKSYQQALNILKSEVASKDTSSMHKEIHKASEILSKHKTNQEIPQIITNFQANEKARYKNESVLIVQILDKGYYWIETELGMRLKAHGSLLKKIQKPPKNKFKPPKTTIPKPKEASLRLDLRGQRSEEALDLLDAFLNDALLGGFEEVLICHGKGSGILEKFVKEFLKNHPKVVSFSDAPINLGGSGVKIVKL
Method: as §1, §2, §3

Q: Which Kd [1] does the source give for `Nc1ncnc2c1ncn2[C@@H]1O[C@H](COP(=O)(O)OP(=O)(O)O)[C@@H](O)[C@H]1O` [ADP] here?
A: Its Kd is 149 ± 31.8 µM.

Q: And the Kd [2]?
A: Its Kd is 239 ± 82.9 µM.

Q: And the Kd [3]?
A: Its Kd is 318 ± 68.5 µM.
